Data as given in PubChem BioAssay AID1996.
In brackets after ≈: the same amount, converted by molar mass.

details: buffer; pH 7.4; 200.0 µM

Going from O=C(Nc1ccccc1)Nc1csc2ccccc12 to S=C(Nc1ccccc1)N1CCc2ccccc21, the solubility kinetic rises from 0.6 µg/mL (≈ 2.24 µM) to 23.8 µg/mL (≈ 93.6 µM) (40-fold).

Going from O=C(CN1C(=O)NC2NC(=O)NC21)N/N=C/c1ccccc1O (stereo unspecified) to O=C(CN1C(=O)COc2ccccc21)NC1CCCC1, the solubility kinetic falls from greater than 47.7 µg/mL to 32.9 µg/mL (≈ 120 µM).

Going from COc1ccc(NS(=O)(=O)c2ccc(-c3ccccn3)s2)cc1 to COc1cccc(NC(=O)COC(=O)c2ccc3ccccc3n2)c1, the solubility kinetic rises from 0.8 µg/mL (≈ 2.31 µM) to 43.4 µg/mL (≈ 129 µM) (54-fold).

Going from COc1ccc(-c2nc(C)c(C(C)=O)n2O)cc1[N+](=O)[O-] to COc1ccc([N+](=O)[O-])cc1NC(=S)NC(C)=O, the solubility kinetic falls from 42.3 µg/mL (≈ 145 µM) to 2 µg/mL (≈ 7.43 µM) (21-fold).

CCC(=O)Nc1ccc2c(c1)nc(CCN1CCC(C)CC1)n2C and Cc1ccccc1NC(=O)NCC1CCN(C(=O)OC(C)(C)C)CC1 cannot be ordered by solubility kinetic: greater than 49.3 µg/mL for the first, greater than 52.1 µg/mL for the second.

Going from CCCC(=O)NC(c1ccc(Cl)cc1)c1ccc2cccnc2c1O (stereo unspecified) to CC(C)(C)c1ccc(C(CC(=O)O)NC(=O)Cc2ccccc2)cc1 (stereo unspecified), the solubility kinetic rises from 0.4 µg/mL (≈ 1.13 µM) to 49.3 µg/mL (≈ 145 µM) (120-fold).

Going from O=C(Nc1ccncc1)OCc1ccccc1 to CCOc1ccccc1NC(=O)c1cc(=O)c2ccccc2o1, the solubility kinetic falls from greater than 34.2 µg/mL to less than 0.7 µg/mL.

Compared with COC(=O)CS(=O)(=O)c1cc([N+](=O)[O-])ccc1NC(=O)OC, Cn1cccc1C(=O)c1cccc([N+](=O)[O-])c1 is 2.7-fold lower in solubility kinetic: 38.7 µg/mL (≈ 116 µM) for the first, 14.3 µg/mL (≈ 62.1 µM) for the second.

First: O=C(Cc1ccc(Cl)cc1)NNC(=O)C1CC=CCC1C(=O)O (stereo unspecified)
Second: OCCC1CCCCN1CC(O)COCc1ccc(Cl)cc1 (stereo unspecified)
The solubility kinetic of the first is higher: greater than 50.5 µg/mL for the first, 45.1 µg/mL (≈ 138 µM) for the second.

COc1ccc(-c2cc(C(=O)Nc3cccc(O)c3)no2)cc1 and Cc1ccc(O)c(NC(=O)c2cc(-c3ccccc3)on2)c1 cannot be ordered by solubility kinetic: less than 0.3 µg/mL for the first, less than 0.3 µg/mL for the second.

CSc1ccccc1Nc1ncnc(N)n1 and COc1ccccc1CNc1cncnc1 are within 1.5-fold of each other in solubility kinetic: 25.8 µg/mL (≈ 111 µM) for the first, 28.2 µg/mL (≈ 131 µM) for the second.

Compared with O=C(COc1cccnc1[N+](=O)[O-])Nc1c(Cl)cccc1Cl, COc1cccc(Nc2nc(-c3cccnc3)cs2)c1 is 18-fold lower in solubility kinetic: 23.2 µg/mL (≈ 67.8 µM) for the first, 1.3 µg/mL (≈ 4.59 µM) for the second.

O=C(O)c1ccc(N/C(=N\S(=O)(=O)c2ccc(Cl)cc2)c2ccccc2)cc1 and CC(=O)Nc1ccc(-c2cc(C(=O)O)c3ccccc3n2)cc1 are within 1.5-fold of each other in solubility kinetic: 56.3 µg/mL (≈ 136 µM) for the first, 42.8 µg/mL (≈ 140 µM) for the second.

Going from COc1ccc(N/C=C/C(=O)c2ccc(OC)c(OC)c2)cc1 to COC(=O)c1ccc(OC(=O)c2ccncc2)cc1O, the solubility kinetic rises from less than 0.7 µg/mL to greater than 41 µg/mL.

Compared with Cc1onc(-c2c(F)cccc2Cl)c1C(=O)N=C(N)N1CCCC1, CNC(=O)c1c(NC(=O)c2cccc(C)c2)sc2c1CCC2 is 12-fold lower in solubility kinetic: 5 µg/mL (≈ 14.3 µM) for the first, 0.4 µg/mL (≈ 1.27 µM) for the second.

First: CCNc1nc(NCC)nc(N(CC)C(N)=S)n1
Second: Nc1nc(NCC(=O)O)nc(NC2CCCCC2)c1[N+](=O)[O-]
The solubility kinetic of the first is lower: 10 µg/mL (≈ 37.1 µM) for the first, greater than 46.5 µg/mL for the second.

CCNC(=O)CC1C(=O)N(CC)C(=S)N1NC(=O)c1cccnc1 (stereo unspecified) and O=C(CC1SC(N2CCCCC2)=NC1=O)Nc1ccc(C(=O)NCc2ccccc2)cc1 (stereo unspecified) cannot be ordered by solubility kinetic: greater than 52.4 µg/mL for the first, 61.3 µg/mL (≈ 136 µM) for the second.

CCOCCOc1cccc(C(=O)NC(c2ccccc2)C(C)C)c1 (stereo unspecified) and Cc1cccc(C(C)C)c1NC(=O)c1cc2ccccc2o1 are within 1.5-fold of each other in solubility kinetic: 6.2 µg/mL (≈ 18.2 µM) for the first, 6.1 µg/mL (≈ 20.8 µM) for the second.

First: COc1ccc(CNC(=O)N2CCc3ccccc3C2)cc1Cl
Second: O=C(CCc1ccccc1)Nc1cc2c3c(c1)CC(=O)N3CCC2
The solubility kinetic of the first is lower: 30.4 µg/mL (≈ 91.9 µM) for the first, greater than 48.1 µg/mL for the second.

Going from COc1cc(SC)ccc1C(=O)Nc1ncc(C)s1 to COc1cc(=O)[nH]c(SC(C)C(=O)Nc2ccc3ccccc3c2)n1 (stereo unspecified), the solubility kinetic falls from 1.4 µg/mL (≈ 4.76 µM) to 0.8 µg/mL (≈ 2.25 µM) (1.7-fold).

Going from CC(=O)Nc1ccc(NC(=O)c2cc(-n3cnnc3)ccc2Cl)cc1 to CSc1nsc(SCC(=O)Nc2ccc(F)cc2)n1, the solubility kinetic falls from greater than 53.4 µg/mL to 39.6 µg/mL (≈ 126 µM).

Compared with CSc1nc(SCCN(C)C)c2c3c(sc2n1)COC(C)(C)C3, CC(=O)c1c(C)[nH]c(C(=O)OCc2cc(-c3ccco3)on2)c1C is 15-fold lower in solubility kinetic: 37.4 µg/mL (≈ 101 µM) for the first, 2.5 µg/mL (≈ 7.61 µM) for the second.

CC(=O)N1C[C@H](O)C[C@H]1C(=O)O and N#CCCN(Cc1ccccc1)C(=O)c1nccnc1C(=O)O cannot be ordered by solubility kinetic: greater than 26 µg/mL for the first, greater than 46.5 µg/mL for the second.

CN1CN(C)c2ccc([N+](=O)[O-])c3cccc1c23 and Cc1nc2ccccc2nc1OCc1cccc([N+](=O)[O-])c1 are within 1.5-fold of each other in solubility kinetic: 2.1 µg/mL (≈ 8.63 µM) for the first, 2 µg/mL (≈ 6.77 µM) for the second.

First: COc1cccc(OCCNC(=O)Nc2cc(F)c(F)cc2Cl)c1
Second: COc1ccc2c(C(=O)CCl)c[nH]c2c1
The solubility kinetic of the first is lower: less than 0.4 µg/mL for the first, 5.3 µg/mL (≈ 23.7 µM) for the second.

Going from CC(=O)Nc1ccccc1-c1nc2cc(C#N)c(C#N)cc2[nH]c1=O to Cc1ccc(C(=O)Cc2nc3ccccc3[nH]2)cc1, the solubility kinetic falls from greater than 49.4 µg/mL to 30.5 µg/mL (≈ 122 µM).

Compared with CCC(C(=O)NC1CC(C)(C)NC(C)(C)C1)c1ccccc1 (stereo unspecified), COc1ccccc1NC(=S)NC1CCCC1 is lower in solubility kinetic: greater than 45.4 µg/mL for the first, 35.9 µg/mL (≈ 143 µM) for the second.

Compared with COc1ccc(/C=C2\SC(N3CCCCC3)=NC2=O)cc1OC, Cc1ccc(OCc2cc(C(=O)NC3CCCCC3)no2)cn1 is 4.1-fold higher in solubility kinetic: 8.2 µg/mL (≈ 24.7 µM) for the first, 34 µg/mL (≈ 108 µM) for the second.

Compared with O=C(COC(=O)c1ccccc1O)NCc1ccco1, CN(C)c1ccc(CNc2ccccn2)cc1 is lower in solubility kinetic: greater than 41.3 µg/mL for the first, 22.3 µg/mL (≈ 98.1 µM) for the second.

First: Cc1csc2c(NCCCN3CCOCC3)ncnc12
Second: CC(C)(C)c1csc(NC(=O)c2c(F)c(F)c(F)c(F)c2F)n1
The solubility kinetic of the first is higher: greater than 43.9 µg/mL for the first, 21.3 µg/mL (≈ 60.8 µM) for the second.

Work on Cc1ccc(C)c(S(=O)(=O)Nc2ccc3[nH]c(=O)[nH]c3c2)c1 yielded a solubility kinetic of 10.4 µg/mL (≈ 32.8 µM).
